T/C data for 13 molecules are collected here from PubChem BioAssay AID260 (DTP/NCI, 2004).

The assay concerns CD2F1 mice, intracerebral L1210 leukemia, survival T/C. Kind of assay: NCI In Vivo Anticancer Drug Screen. Data for tumor model L1210 Leukemia (intracerebral) in CD2F1 (CDF1) mice. The conditions noted are these: higher = longer survival. The procedure: The antitumor activity of compounds was measured in mice bearing transplantable tumors. Survival or tumor size were measured and the results are expressed as the measurement made in the treated group (T) divided by the measurement made in the vehicle treated control group (C). The tumor model used in this assay is L1210 Leukemia (intracerebral) in CD2F1 (CDF1) mice

The mark [1] stands for this setting: endpoint: mean survival time, dose: 10.0 mg/kg/injection, schedule: Q01DX007 (ip), vehicle: DMSO.
Where [2] appears, read: endpoint: mean survival time, dose: 20.0 mg/kg/injection, schedule: Q01DX007 (ip), vehicle: DMSO.
The mark [3] stands for this setting: endpoint: mean survival time, dose: 40.0 mg/kg/injection, schedule: Q01DX007 (ip), vehicle: DMSO.
The mark [4] stands for this setting: endpoint: mean survival time, dose: 80.0 mg/kg/injection, schedule: Q01DX007 (ip), vehicle: DMSO.

Values joined by “and” are separate entries in the source; they are usually repeats but may differ in a detail not shown here. Equal entries are not always repeated. Toxic doses and inconclusive results are not listed.

`Nc1ccn([C@@H]2C=C(CO)[C@@H](O)[C@H]2O)c(=O)n1`: the T/C by setting is: (endpoint: median survival time, dose: 0.44 mg/kg/injection, schedule: Q01DX009 (ip), vehicle: saline) 103 % of control; (endpoint: median survival time, dose: 0.67 mg/kg/injection, schedule: Q01DX009 (ip), vehicle: saline) 114 % of control; (endpoint: median survival time, dose: 2.25 mg/kg/injection, schedule: Q01DX009 (ip), vehicle: saline) 120 % of control; (endpoint: median survival time, dose: 3.76 mg/kg/injection, schedule: Q01DX009 (ip), vehicle: saline) 92 % of control.

Turning to `CN(C)N=Nc1ccccc1C(=O)O`, the T/C (endpoint: mean survival time, dose: 5.0 mg/kg/injection, schedule: Q01DX007 (ip), vehicle: other) is 103 % of control; the T/C (endpoint: mean survival time, dose: 10.0 mg/kg/injection, schedule: Q01DX007 (ip), vehicle: other) was 109 % of control; the T/C (endpoint: mean survival time, dose: 20.0 mg/kg/injection, schedule: Q01DX007 (ip), vehicle: other) was 112 % of control; the T/C (endpoint: mean survival time, dose: 40.0 mg/kg/injection, schedule: Q01DX007 (ip), vehicle: other) is 101 % of control; the T/C (endpoint: median survival time, dose: 4.0 mg/kg/injection, schedule: Q01DX005 (ip), vehicle: saline + alcohol) is 105 % of control; the T/C (endpoint: median survival time, dose: 8.0 mg/kg/injection, schedule: Q01DX005 (ip), vehicle: saline + alcohol) was 102 % of control. Moreover, the T/C (endpoint: median survival time, dose: 16.0 mg/kg/injection, schedule: Q01DX005 (ip), vehicle: saline + alcohol) is 105 % of control; the T/C (endpoint: median survival time, dose: 32.0 mg/kg/injection, schedule: Q01DX005 (ip), vehicle: saline + alcohol) is 108 % of control; the T/C (endpoint: median survival time, dose: 64.0 mg/kg/injection, schedule: Q01DX005 (ip), vehicle: saline + alcohol) was 97 % of control.

In the case of `COc1ccc(CC2C(=O)NC(C)C(=O)N(C)C3C(=O)N(C)C(Cc4ccc(O)c(c4)Oc4ccc(cc4)C3O)C(=O)NC(C)C(=O)NC(C)C(=O)N2C)cc1` (stereo unspecified), the T/C (endpoint: median survival time, dose: 0.12 mg/kg/injection, schedule: Q01DX009 (ip), vehicle: Klucel (hydroxypropylcellulose) (HPC)) was 101 % of control; the T/C (endpoint: median survival time, dose: 0.13 mg/kg/injection, schedule: Q01DX009 (ip), vehicle: saline) is 93 % of control and 117 % of control; the T/C (endpoint: median survival time, dose: 0.25 mg/kg/injection, schedule: Q01DX009 (ip), vehicle: Klucel (hydroxypropylcellulose) (HPC)) is 93 % of control and 101 % of control; the T/C (endpoint: median survival time, dose: 0.25 mg/kg/injection, schedule: Q01DX009 (ip), vehicle: saline) is 124 % of control and 91 % of control; the T/C (endpoint: median survival time, dose: 0.5 mg/kg/injection, schedule: Q01DX009 (ip), vehicle: Klucel (hydroxypropylcellulose) (HPC)) is 98 % of control and 100 % of control; the T/C (endpoint: median survival time, dose: 0.5 mg/kg/injection, schedule: Q01DX009 (ip), vehicle: saline) is 124 % of control and 111 % of control. The T/C runs as follows: (endpoint: median survival time, dose: 1.0 mg/kg/injection, schedule: Q01DX009 (ip), vehicle: Klucel (hydroxypropylcellulose) (HPC)) 97 % of control and 100 % of control; (endpoint: median survival time, dose: 1.0 mg/kg/injection, schedule: Q01DX009 (ip), vehicle: saline) 104 % of control and 107 % of control; (endpoint: median survival time, dose: 2.0 mg/kg/injection, schedule: Q01DX009 (ip), vehicle: saline) 109 % of control and 111 % of control.

Take `C#CCN(C)/N=N/c1nc[nH]c1C(N)=O`: the T/C was 118 % of control (endpoint: median survival time, dose: 16.0 mg/kg/injection, schedule: Q01DX005 (ip), vehicle: saline with Tween-80); 124 % of control (endpoint: median survival time, dose: 64.0 mg/kg/injection, schedule: Q01DX005 (ip), vehicle: saline with Tween-80); 120 % of control (endpoint: median survival time, dose: 128.0 mg/kg/injection, schedule: Q01DX005 (ip), vehicle: saline with Tween-80).

With `CN(C)N=Nc1ccc(C(=O)O)cc1`, the T/C under setting [1] was 91 % of control; the T/C under setting [2] is 96 % of control; the T/C (endpoint: mean survival time, dose: 25.0 mg/kg/injection, schedule: Q01DX009 (ip), vehicle: saline) is 104 % of control; the T/C under setting [3] is 108 % of control; the T/C (endpoint: mean survival time, dose: 50.0 mg/kg/injection, schedule: Q01DX009 (ip), vehicle: saline) was 119 % of control; the T/C under setting [4] is 122 % of control. In addition, the T/C (endpoint: mean survival time, dose: 200.0 mg/kg/injection, schedule: Q01DX009 (ip), vehicle: saline) is 113 % of control.

For `O=C1c2ccccc2C(=O)c2c(NCCNCCO)ccc(NCCNCCO)c21`, the T/C runs as follows: (endpoint: median survival time, dose: 4.0 mg/kg/injection, schedule: Q01DX009 (ip), vehicle: saline with Tween-80) 118 % of control; (endpoint: median survival time, dose: 4.0 mg/kg/injection, schedule: Q01DX009 (ip), vehicle: saline) 102 % of control and 111 % of control; (endpoint: median survival time, dose: 8.0 mg/kg/injection, schedule: Q01DX009 (ip), vehicle: saline) 119 % of control and 102 % of control; (endpoint: median survival time, dose: 16.0 mg/kg/injection, schedule: Q01DX009 (ip), vehicle: saline) 121 % of control and 124 % of control; (endpoint: median survival time, dose: 32.0 mg/kg/injection, schedule: Q01DX009 (ip), vehicle: saline with Tween-80) 97 % of control; (endpoint: median survival time, dose: 32.0 mg/kg/injection, schedule: Q01DX009 (ip), vehicle: saline) 103 % of control.

As for `CN(C)N=Nc1ccc(Cl)cc1`, the T/C reads like this: under setting [1], 90 % of control; under setting [2], 91 % of control; under setting [3], 108 % of control; under setting [4], 87 % of control; (endpoint: mean survival time, dose: 120.0 mg/kg/injection, schedule: Q01DX007 (ip), vehicle: DMSO) 91 % of control.

Regarding `Cc1cn(C2CC(O)C(CO)O2)c(=O)[nH]c1=O` (stereo unspecified), the T/C (endpoint: median survival time, dose: 100.0 mg/kg/injection, schedule: Q01DX009 (ip), vehicle: saline with Tween-80) was 104 % of control; the T/C (endpoint: median survival time, dose: 100.0 mg/kg/injection, schedule: Q01DX009 (ip), vehicle: saline) was 100 % of control and 103 % of control; the T/C (endpoint: median survival time, dose: 200.0 mg/kg/injection, schedule: Q01DX009 (ip), vehicle: saline with Tween-80) is 107 % of control; the T/C (endpoint: median survival time, dose: 200.0 mg/kg/injection, schedule: Q01DX009 (ip), vehicle: saline) was 98 % of control and 100 % of control; the T/C (endpoint: median survival time, dose: 400.0 mg/kg/injection, schedule: Q01DX009 (ip), vehicle: saline with Tween-80) is 109 % of control; the T/C (endpoint: median survival time, dose: 400.0 mg/kg/injection, schedule: Q01DX009 (ip), vehicle: saline) is 101 % of control. Further, the T/C was 114 % of control (endpoint: median survival time, dose: 800.0 mg/kg/injection, schedule: Q01DX009 (ip), vehicle: saline with Tween-80); 103 % of control and 113 % of control (endpoint: median survival time, dose: 800.0 mg/kg/injection, schedule: Q01DX009 (ip), vehicle: saline); 106 % of control (endpoint: median survival time, dose: 1600.0 mg/kg/injection, schedule: Q01DX009 (ip), vehicle: saline with Tween-80).

On to `c1ccc([C@H]2CN3CCSC3=N2)cc1`, for which the T/C was 100 % of control and 101 % of control and 103 % of control (endpoint: median survival time, dose: 5.0 mg/kg/injection, schedule: Q01DX009 (ip), vehicle: saline); 101 % of control (endpoint: median survival time, dose: 10.0 mg/kg/injection, schedule: Q01DX005 (ip), vehicle: saline); 124 % of control and 100 % of control and 102 % of control (endpoint: median survival time, dose: 10.0 mg/kg/injection, schedule: Q01DX009 (ip), vehicle: saline); 98 % of control and 116 % of control (endpoint: median survival time, dose: 20.0 mg/kg/injection, schedule: Q01DX005 (ip), vehicle: saline); 97 % of control (2×) and 104 % of control (endpoint: median survival time, dose: 20.0 mg/kg/injection, schedule: Q01DX009 (ip), vehicle: saline); 98 % of control and 113 % of control (endpoint: median survival time, dose: 40.0 mg/kg/injection, schedule: Q01DX005 (ip), vehicle: saline).

For the molecule `CC(=O)OC1(C)CC(C)C(=O)C(C(O)CC2CC(=O)NC(=O)C2)C1` (stereo unspecified), the T/C was 101 % of control (endpoint: mean survival time, dose: 0.04 mg/kg/injection, schedule: Q01DX009 (ip), vehicle: saline); 101 % of control (endpoint: mean survival time, dose: 0.06 mg/kg/injection, schedule: Q01DX009 (ip), vehicle: saline); 108 % of control (endpoint: mean survival time, dose: 0.13 mg/kg/injection, schedule: Q01DX009 (ip), vehicle: saline); 111 % of control (endpoint: mean survival time, dose: 0.25 mg/kg/injection, schedule: Q01DX009 (ip), vehicle: saline); 105 % of control (endpoint: mean survival time, dose: 0.5 mg/kg/injection, schedule: Q01DX009 (ip), vehicle: saline).

In the case of `CN(C)CC(=O)c1ccc(O)c(O)c1`, the T/C (endpoint: median survival time, dose: 100.0 mg/kg/injection, schedule: Q01DX005 (ip), vehicle: saline) is 95 % of control and 107 % of control; the T/C (endpoint: median survival time, dose: 200.0 mg/kg/injection, schedule: Q01DX005 (ip), vehicle: saline) was 109 % of control; the T/C (endpoint: median survival time, dose: 400.0 mg/kg/injection, schedule: Q01DX005 (ip), vehicle: saline) is 290 % of control and 103 % of control; the T/C (endpoint: median survival time, dose: 800.0 mg/kg/injection, schedule: Q01DX005 (ip), vehicle: saline) is 88 % of control and 110 % of control.

Consider `CC[n+]1c(-c2ccccc2)c2cc(N)ccc2c2ccc(N)cc21`, for which the T/C (endpoint: median survival time, dose: 12.0 mg/kg/injection, schedule: Q01DX005 (ip), vehicle: saline) is 100 % of control and the T/C (endpoint: median survival time, dose: 24.0 mg/kg/injection, schedule: Q01DX005 (ip), vehicle: saline) is 104 % of control.

`COC(=O)NC1=C(N2CC2)C(=O)C(NC(=O)OC)=C(N2CC2)C1=O`: the T/C was 112 % of control and 117 % of control (endpoint: median survival time, dose: 0.37 mg/kg/injection, schedule: Q01DX009 (ip), vehicle: saline); 120 % of control and 122 % of control (endpoint: median survival time, dose: 0.75 mg/kg/injection, schedule: Q01DX009 (ip), vehicle: saline).
